Test [1] has as its target T1, rP2X4R P207A mutant (Rattus norvegicus, UniProt P51577, P207A).
T1 construct: expressed in transfected cells; host or cells: HEK293T
T1 sequence (P51577 1-388 P207A): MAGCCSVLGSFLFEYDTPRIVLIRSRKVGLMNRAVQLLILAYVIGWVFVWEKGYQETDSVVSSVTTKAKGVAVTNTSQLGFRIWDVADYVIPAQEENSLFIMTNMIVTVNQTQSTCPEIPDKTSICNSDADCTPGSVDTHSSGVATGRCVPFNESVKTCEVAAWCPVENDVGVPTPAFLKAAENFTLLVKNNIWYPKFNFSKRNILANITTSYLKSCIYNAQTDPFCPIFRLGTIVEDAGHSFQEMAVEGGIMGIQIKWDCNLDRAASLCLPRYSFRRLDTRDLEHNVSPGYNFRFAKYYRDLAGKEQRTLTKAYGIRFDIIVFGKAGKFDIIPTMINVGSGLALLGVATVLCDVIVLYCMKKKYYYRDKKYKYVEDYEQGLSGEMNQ
Description: whole-cell patch clamp, HEK293T cells expressing mutant. It is filed as cell-based.

The target in test [2] is T2, rP2X4R D283A mutant (Rattus norvegicus, UniProt P51577, D283A).
T2 construct: expressed in transfected cells; host or cells: HEK293T
T2 sequence (P51577 1-388 D283A): T1 sequence (P51577 1-388 P207A) with A207P, D283A
The description is as above. In kind it is cell-based.

Setting [3] is: 100 µM ATP 60 s, biexponential fit.
The mark [4] stands for this setting: contribution of τdes2, 100 µM ATP 60 s.
[5] abbreviates: naïve receptors, 2–5 s application.
[6] abbreviates: 3 µM IVM 4-6 min vs IVM-untreated.

One may read the EC50 as the concentration that produces a half-maximal response. Read a high EC50 as lower potency in that assay.

Positions count from the first letter of the chain named.

For `Nc1ncnc2c1ncn2[C@@H]1O[C@H](COP(=O)(O)OP(=O)(O)OP(=O)(O)O)[C@@H](O)[C@H]1O` [ATP], the τdes1 was determined as 0.7 ± 0.1 s in test [1] (setting [3]) and 2.2 ± 0.6 s in test [2] (setting [3]). Moreover, the results for the τdes2 in test [1] (setting [3]) and in test [2] (setting [3]) were 5.6 ± 0.2 s and 17.1 ± 5.8 s, respectively. The “A2 /(A1+A2)” value in test [1] (setting [4]) amounted to 71 ± 2%; in test [2] (setting [4]) it was 59 ± 10%. Besides, the EC50 in test [1] (setting [5]) was 2.1 ± 1.1 µM; in test [2] (setting [5]), 7.3 ± 3.4 µM. Also, the τdes in test [1] (weighted, 100 µM ATP 60 s) was determined as 4.1 ± 0.2 s; in test [2] (weighted, 100 µM ATP 60 s), 9.1 ± 1.5 s. Besides, the Imax in test [2] (100–1000 µM ATP) stood at 2.2 ± 0.3 nA. In addition, the “Imax+IVM” value in test [2] (ATP after 3 µM IVM 4-6 min) is 3.1 ± 0.3 nA. Further, the “τoff +IVM” value in test [2] (decay after removal of 1 or 3 µM ATP, 3 µM IVM) was found to be 16 ± 1.7 s.

As to `CC[C@H](C)[C@H]1O[C@]2(CC[C@@H]1C)C[C@@H]1C[C@@H](C/C=C(\C)[C@@H](O[C@H]3C[C@H](OC)[C@@H](O[C@H]4C[C@H](OC)[C@@H](O)[C@H](C)O4)[C@H](C)O3)[C@@H](C)/C=C/C=C3\CO[C@@H]4[C@H](O)C(C)=C[C@@H](C(=O)O1)[C@]34O)O2` [IVM, ivermectin], the “Fold incr. Imax” value is given as 1.5 ± 0.3 fold in test [1] (setting [6]) and 1.4 ± 0.1 fold in test [2] (setting [6]).
